# Patent publication US10112954B2, “Bicyclic heteroaryl derivatives having inhibitory activity for protein kinase” (HANMI PHARM. CO., LTD., priority 2010, dated 2018)
# Like-named read-outs stand apart in the source and are kept apart here.
# Experiments:
# Type in all cases: biochemical
# PDGFRβ = biological target: T1, PDGFRβ (Homo sapiens, UniProt P09619); assay: Inhibition of PDGFRβ kinase; conditions: Table 3
# T1 construct: purchased Upstate Company
# Description: (§1) Inhibition activities of kinases of the inventive compounds (test compounds) prepared in the Examples were assessed and represented as IC50 values.
# (§2) Kinases used in Test Examples 1 to 3 were purchased from Upstate Company.
# (§3) 100 mM HEPES (pH 7.4), 25 mM MgCl2, 10 mM MnCl2 and 250 μM Na3VO4 were mixed to prepare a kinase buffer. Each of kinases to be measured was diluted to a concentration of 25˜300 ng per one reaction according to its activity with the kinase buffer. Also, each of the test compounds was serially diluted to a concentration starting from 100 nM up to 0.1 nM with the kinase buffer. 10 μl of the serially diluted solution of each of the test compounds and 10 μl of the diluted kinase were added to each well of a 96-well microplate, and the plate was incubated at room temperature for 10 mins. 10 μl of a substrate and 10 μl of ATP were successively added thereto to initiate a kinase reaction, and the resulting mixture was incubated at room temperature for 1 hour. The ATP was used in a form of a solution diluted to a concentration determined according to a kinase's Km value with distilled water. 10˜100 ng/mL poly(Glu, Tyr) 4:1 (Sigma) was used as the substrate. […] The FP (fluorescence polarization) value of each well was determined with a Victor™ D fluorescence meter (Perkin Elmer Lifesciences). […]
# EGFR = biological target: T2, EGFR (Homo sapiens, UniProt P00533); assay: Inhibition of EGFR (Her1) kinase; conditions: Table 3
# T2 construct: purchased Upstate Company
# Description: as §1, §2, §3
# Her2 = biological target: T3, Her2 (Homo sapiens, UniProt P04626); assay: Inhibition of Her2 kinase; conditions: Table 3
# T3 construct: purchased Upstate Company
# Description: as §1, §2, §3
# PDGFRα = biological target: T4, PDGFRα (Homo sapiens, UniProt P16234); assay: Inhibition of PDGFRα kinase; conditions: Table 3
# T4 construct: purchased Upstate Company
# Description: as §1, §2, §3
# Flt1 = biological target: T5, Flt1 (Homo sapiens, UniProt P17948); assay: Inhibition of Flt1 kinase; conditions: Table 3
# T5 construct: purchased Upstate Company
# Description: as §1, §2, §3
# FGFR3 = biological target: T6, FGFR3 (Homo sapiens, UniProt P22607); assay: Inhibition of FGFR3 kinase (fluorescence polarization kinase assay)
# T6 construct: purchased Upstate Company
# Description: as §1, §2
# (§4) 100 mM HEPES (pH 7.4), 25 mM MgCl2, 10 mM MnCl2 and 250 μM Na3VO4 were mixed to prepare a kinase buffer. Each of kinases to be measured was diluted to a concentration of 25˜300 ng per one reaction according to its activity with the kinase buffer. Also, each of the test compounds was serially diluted to a concentration starting from 100 nM up to 0.1 nM with the kinase buffer. 10 μl of the serially diluted solution of each of the test compounds and 10 μl of the diluted kinase were added to each well of a 96-well microplate, and the plate was incubated at room temperature for 10 mins. 10 μl of a substrate and 10 μl of ATP were successively added thereto to initiate a kinase reaction, and the resulting mixture was incubated at room temperature for 1 hour. The ATP was used in a form of a solution diluted to a concentration determined according to a kinase's Km value with distilled water. 10˜100 ng/mL poly(Glu, Tyr) 4:1 (Sigma) was used as the substrate. 10 μl of 6 mM EDTA was added to each well and stirred for 5 mins to terminate the kinase reaction. For a measurement of phosphorylation degree, 50 μl of a solution containing anti-phosphotyrosine antibody and fluorescein-labeled phosphopeptide was added to the reaction mixture, followed by incubating for 30 mins. The FP (fluorescence polarization) value of each well was determined with a Victor™ D fluorescence meter (Perkin Elmer Lifesciences).
# (§5) IC50, the concentration at which 50% inhibition occurs, was evaluated based on the difference between the final concentration of the test cells and the initial concentration of the cells incubated in a well not-treated with the test compound which was regarded as 100%. IC50 values of the test compounds on the FGFR kinase were shown in Table 2, and those of the test compound obtained in Example 177 on various kinases, in Table 3.
# Tie2 = biological target: T7, Tie2 (Homo sapiens, UniProt Q02763); assay: Inhibition of Tie2 kinase; conditions: Table 3
# T7 construct: purchased Upstate Company
# Description: as §1, §2, §3
# Kit = biological target: T8, Kit (Homo sapiens, UniProt P10721); assay: Inhibition of Kit kinase; conditions: Table 3
# T8 construct: purchased Upstate Company
# Description: as §1, §2, §3
# Fms = biological target: T9, Fms (Homo sapiens, UniProt P07333); assay: Inhibition of Fms kinase; conditions: Table 3
# T9 construct: purchased Upstate Company
# Description: as §1, §2, §3
# Ret = biological target: T10, Ret (Homo sapiens, UniProt P07949); assay: Inhibition of Ret kinase; conditions: Table 3
# T10 construct: purchased Upstate Company
# Description: as §1, §2, §3
# KDR = biological target: T11, KDR (Homo sapiens, UniProt P35968); assay: Inhibition of KDR kinase; conditions: Table 3
# T11 construct: purchased Upstate Company
# Description: as §1, §2, §3
# Src = biological target: T12, Src (Homo sapiens, UniProt P12931); assay: Inhibition of Src kinase (Profluor Src kinase assay kit); conditions: Table 3
# T12 construct: purchased Upstate Company
# Description: as §1, §2
# (§6) An inhibition activity of Src kinase was determined with an Src kinase assay kit (Profluor™, Promega). Each of kinases to be measured was diluted to a concentration of 25 ng per one reaction with the kinase buffer provided in the kit. Also, each of the test compounds was serially diluted to a concentration starting from 100 μM up to 0.1 nM with 10% DMSO. 5 μl of the serially diluted solution of each of the test compounds and 20 μl of the diluted kinase were added to each well of a 96-well microplate, and the plate was incubated at room temperature for 10 mins. 25 μl of ATP was added thereto, followed by incubating for 1 hour, and a protease solution was added thereto, followed by incubating for 1 hour. 25 μl of a stabilizer solution was added to the resulting solution, followed by incubating in dark for 5 mins. The absorbance of each well was determined with a fluorescence reader (Molecular Devices) (excitation wavelength: 485 nm, emission wavelength: 530 nm). […]
# FGFR1 = biological target: T13, FGFR1 (Homo sapiens, UniProt P11362); assay: Inhibition of FGFR1 kinase (fluorescence polarization kinase assay)
# T13 construct: purchased Upstate Company
# Description: as §1, §2, §4, §5
# Met = biological target: T14, Met (Homo sapiens, UniProt P08581); assay: Inhibition of Met kinase; conditions: Table 3
# T14 construct: purchased Upstate Company
# Description: as §1, §2, §3
# Fyn = biological target: T15, Fyn (Homo sapiens, UniProt P06241); assay: Inhibition of Fyn kinase (Profluor kit procedure); conditions: Table 3
# T15 construct: purchased Upstate Company
# Description: as §1, §2, §6
# Flt3 = biological target: T16, Flt3 (Homo sapiens, UniProt P36888); assay: Inhibition of Flt3 kinase; conditions: Table 3
# T16 construct: purchased Upstate Company
# T16 sequence (P36888 27-993): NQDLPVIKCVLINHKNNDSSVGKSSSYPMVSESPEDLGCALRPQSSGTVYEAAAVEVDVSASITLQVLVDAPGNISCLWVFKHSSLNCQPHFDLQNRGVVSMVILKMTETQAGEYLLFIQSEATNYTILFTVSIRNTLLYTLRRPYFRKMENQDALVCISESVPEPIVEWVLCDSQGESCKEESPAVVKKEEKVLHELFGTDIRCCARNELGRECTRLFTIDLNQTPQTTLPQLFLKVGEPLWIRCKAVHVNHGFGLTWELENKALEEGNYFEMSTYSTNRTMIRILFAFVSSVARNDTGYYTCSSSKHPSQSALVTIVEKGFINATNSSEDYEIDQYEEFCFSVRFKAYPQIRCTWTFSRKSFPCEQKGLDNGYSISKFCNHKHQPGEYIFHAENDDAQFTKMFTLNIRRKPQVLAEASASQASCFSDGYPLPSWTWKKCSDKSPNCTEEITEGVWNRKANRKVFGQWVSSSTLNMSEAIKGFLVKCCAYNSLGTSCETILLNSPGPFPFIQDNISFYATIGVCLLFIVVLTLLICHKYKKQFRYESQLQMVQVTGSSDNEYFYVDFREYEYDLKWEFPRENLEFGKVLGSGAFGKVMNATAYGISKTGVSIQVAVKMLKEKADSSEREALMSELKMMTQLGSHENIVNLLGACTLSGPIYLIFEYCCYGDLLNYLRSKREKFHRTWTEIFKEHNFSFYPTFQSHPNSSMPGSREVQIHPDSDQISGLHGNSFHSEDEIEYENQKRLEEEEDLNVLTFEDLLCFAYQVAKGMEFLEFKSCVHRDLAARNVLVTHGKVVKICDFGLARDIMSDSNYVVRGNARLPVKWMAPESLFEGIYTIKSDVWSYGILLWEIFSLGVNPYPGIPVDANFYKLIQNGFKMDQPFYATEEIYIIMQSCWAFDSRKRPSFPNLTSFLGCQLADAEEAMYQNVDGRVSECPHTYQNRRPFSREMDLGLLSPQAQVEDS
# Description: as §1, §2, §3
# Lyn = biological target: T17, Lyn (Homo sapiens, UniProt P07948); assay: Inhibition of Lyn kinase (Profluor kit procedure); conditions: Table 3
# T17 construct: purchased Upstate Company
# Description: as §1, §2, §6
# Lck = biological target: T18, Lck (Homo sapiens, UniProt P06239); assay: Inhibition of Lck kinase (Profluor kit procedure); conditions: Table 3
# T18 construct: purchased Upstate Company
# Description: as §1, §2, §6
# [1] = Table 2, class symbols, read-out: FGFR3 IC50
# [2] = Table 2, class symbols, read-out: FGFR1 IC50
# T13 sequence (P11362 22-822, species assumed): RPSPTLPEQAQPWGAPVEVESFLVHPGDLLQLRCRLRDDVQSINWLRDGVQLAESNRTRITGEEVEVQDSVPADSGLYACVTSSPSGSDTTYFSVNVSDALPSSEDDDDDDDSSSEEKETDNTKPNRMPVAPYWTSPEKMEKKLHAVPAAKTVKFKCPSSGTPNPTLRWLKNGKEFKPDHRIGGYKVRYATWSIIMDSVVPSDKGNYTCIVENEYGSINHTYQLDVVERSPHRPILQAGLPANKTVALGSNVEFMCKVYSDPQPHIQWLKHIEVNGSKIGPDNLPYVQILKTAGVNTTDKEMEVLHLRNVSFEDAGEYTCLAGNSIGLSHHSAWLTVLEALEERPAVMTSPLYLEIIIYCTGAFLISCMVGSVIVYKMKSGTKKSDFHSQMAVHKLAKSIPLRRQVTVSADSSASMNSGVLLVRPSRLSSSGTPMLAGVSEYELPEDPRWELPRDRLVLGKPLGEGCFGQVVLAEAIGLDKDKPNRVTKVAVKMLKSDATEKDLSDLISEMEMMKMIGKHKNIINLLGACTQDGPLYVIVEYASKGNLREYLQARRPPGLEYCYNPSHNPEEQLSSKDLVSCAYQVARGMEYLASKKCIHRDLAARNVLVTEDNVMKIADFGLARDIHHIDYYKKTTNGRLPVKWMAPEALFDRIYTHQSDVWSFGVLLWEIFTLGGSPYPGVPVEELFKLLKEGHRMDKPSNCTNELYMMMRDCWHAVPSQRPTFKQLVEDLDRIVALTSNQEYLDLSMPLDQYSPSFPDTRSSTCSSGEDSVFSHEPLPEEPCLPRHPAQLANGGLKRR
# T6 sequence (P22607 23-806, species assumed): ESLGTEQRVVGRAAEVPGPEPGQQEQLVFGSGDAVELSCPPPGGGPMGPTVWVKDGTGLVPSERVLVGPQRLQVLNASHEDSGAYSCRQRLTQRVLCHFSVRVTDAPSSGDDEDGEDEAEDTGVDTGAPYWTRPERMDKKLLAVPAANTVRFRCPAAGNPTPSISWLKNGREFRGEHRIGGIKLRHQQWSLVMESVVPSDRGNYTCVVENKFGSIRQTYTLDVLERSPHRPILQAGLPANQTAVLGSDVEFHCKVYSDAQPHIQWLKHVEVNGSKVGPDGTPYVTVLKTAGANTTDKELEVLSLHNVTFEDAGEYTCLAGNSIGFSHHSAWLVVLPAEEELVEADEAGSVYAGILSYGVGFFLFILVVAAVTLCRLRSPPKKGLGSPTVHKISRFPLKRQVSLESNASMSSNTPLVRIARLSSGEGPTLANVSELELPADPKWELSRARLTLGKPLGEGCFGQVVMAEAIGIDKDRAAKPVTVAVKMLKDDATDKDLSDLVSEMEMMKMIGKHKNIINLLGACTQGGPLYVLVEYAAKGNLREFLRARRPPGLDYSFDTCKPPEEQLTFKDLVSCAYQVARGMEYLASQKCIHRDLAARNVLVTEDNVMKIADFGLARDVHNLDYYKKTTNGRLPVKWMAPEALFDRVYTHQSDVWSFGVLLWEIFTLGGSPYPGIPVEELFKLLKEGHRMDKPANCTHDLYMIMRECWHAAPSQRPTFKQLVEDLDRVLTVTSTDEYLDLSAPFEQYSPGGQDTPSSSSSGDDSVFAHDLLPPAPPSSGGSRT
# T15 sequence (P06241 whole entry, species assumed): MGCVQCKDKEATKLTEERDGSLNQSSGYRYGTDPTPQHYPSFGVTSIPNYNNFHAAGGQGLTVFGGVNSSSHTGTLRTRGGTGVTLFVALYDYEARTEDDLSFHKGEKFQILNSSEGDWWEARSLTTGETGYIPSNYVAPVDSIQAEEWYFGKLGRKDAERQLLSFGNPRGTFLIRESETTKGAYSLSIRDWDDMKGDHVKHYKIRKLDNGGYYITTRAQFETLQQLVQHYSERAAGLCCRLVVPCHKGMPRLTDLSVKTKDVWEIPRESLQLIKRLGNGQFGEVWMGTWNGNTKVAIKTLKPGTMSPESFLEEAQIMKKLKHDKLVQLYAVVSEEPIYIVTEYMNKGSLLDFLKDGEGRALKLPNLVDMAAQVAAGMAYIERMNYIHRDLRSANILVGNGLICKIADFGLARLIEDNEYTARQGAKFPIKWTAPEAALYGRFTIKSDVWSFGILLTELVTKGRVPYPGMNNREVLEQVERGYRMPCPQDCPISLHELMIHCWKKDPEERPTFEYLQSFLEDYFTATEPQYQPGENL
# T18 sequence (P06239 whole entry, species assumed): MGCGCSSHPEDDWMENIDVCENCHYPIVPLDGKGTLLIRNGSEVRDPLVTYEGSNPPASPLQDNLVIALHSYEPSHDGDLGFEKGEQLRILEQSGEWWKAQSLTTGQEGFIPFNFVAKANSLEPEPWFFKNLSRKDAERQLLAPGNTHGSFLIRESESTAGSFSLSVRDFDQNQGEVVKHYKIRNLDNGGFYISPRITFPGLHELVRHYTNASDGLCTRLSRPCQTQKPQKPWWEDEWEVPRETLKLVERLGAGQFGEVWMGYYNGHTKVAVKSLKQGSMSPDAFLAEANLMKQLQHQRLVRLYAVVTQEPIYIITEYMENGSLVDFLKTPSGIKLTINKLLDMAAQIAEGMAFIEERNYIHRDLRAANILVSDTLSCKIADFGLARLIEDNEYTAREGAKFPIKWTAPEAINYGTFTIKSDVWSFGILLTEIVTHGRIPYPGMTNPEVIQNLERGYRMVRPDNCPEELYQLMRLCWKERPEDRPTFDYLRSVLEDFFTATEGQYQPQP
# T2 sequence (P00533 25-1210, species assumed): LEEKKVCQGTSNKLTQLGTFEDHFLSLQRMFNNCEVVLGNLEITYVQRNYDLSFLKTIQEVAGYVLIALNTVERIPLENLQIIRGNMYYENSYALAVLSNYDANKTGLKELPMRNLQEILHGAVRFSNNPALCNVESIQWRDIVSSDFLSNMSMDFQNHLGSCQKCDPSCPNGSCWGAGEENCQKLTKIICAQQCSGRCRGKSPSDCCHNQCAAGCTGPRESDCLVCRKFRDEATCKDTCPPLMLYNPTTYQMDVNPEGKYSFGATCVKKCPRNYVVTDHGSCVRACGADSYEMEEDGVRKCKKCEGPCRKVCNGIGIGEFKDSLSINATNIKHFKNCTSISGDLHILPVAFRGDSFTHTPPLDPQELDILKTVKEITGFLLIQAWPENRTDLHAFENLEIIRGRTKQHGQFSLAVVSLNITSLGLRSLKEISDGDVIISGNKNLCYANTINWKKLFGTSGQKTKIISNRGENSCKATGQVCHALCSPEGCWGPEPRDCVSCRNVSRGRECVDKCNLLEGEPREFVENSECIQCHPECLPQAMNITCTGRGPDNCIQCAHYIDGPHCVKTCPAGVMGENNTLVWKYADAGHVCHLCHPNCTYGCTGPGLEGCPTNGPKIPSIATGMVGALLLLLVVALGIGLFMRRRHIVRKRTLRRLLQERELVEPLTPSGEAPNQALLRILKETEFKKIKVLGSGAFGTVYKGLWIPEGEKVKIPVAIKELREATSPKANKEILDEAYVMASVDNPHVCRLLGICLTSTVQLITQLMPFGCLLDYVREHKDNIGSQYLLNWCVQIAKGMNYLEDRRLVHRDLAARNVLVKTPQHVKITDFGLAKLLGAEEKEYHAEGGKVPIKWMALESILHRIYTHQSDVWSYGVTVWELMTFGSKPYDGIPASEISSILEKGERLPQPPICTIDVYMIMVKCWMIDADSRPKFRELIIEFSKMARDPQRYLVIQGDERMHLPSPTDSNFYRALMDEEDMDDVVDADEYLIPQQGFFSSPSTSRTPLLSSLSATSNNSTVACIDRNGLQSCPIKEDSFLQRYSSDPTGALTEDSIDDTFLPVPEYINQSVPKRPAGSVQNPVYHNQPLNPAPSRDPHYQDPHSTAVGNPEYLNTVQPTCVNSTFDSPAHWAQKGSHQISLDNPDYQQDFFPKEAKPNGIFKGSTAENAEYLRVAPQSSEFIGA
# T12 sequence (P12931 whole entry, species assumed): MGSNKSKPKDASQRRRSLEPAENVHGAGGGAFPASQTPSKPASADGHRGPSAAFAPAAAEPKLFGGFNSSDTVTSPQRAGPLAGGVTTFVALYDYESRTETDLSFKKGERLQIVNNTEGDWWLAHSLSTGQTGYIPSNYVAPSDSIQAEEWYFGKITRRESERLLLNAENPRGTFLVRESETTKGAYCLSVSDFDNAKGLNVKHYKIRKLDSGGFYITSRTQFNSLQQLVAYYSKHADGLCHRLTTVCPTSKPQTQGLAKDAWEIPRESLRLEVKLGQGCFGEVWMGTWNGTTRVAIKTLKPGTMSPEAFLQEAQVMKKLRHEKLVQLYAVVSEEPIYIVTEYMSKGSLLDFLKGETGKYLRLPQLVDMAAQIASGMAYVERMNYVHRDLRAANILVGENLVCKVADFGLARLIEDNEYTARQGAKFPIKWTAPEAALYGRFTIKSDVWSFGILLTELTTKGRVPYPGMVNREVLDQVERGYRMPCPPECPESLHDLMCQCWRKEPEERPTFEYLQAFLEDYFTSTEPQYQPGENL
# T17 sequence (P07948 whole entry, species assumed): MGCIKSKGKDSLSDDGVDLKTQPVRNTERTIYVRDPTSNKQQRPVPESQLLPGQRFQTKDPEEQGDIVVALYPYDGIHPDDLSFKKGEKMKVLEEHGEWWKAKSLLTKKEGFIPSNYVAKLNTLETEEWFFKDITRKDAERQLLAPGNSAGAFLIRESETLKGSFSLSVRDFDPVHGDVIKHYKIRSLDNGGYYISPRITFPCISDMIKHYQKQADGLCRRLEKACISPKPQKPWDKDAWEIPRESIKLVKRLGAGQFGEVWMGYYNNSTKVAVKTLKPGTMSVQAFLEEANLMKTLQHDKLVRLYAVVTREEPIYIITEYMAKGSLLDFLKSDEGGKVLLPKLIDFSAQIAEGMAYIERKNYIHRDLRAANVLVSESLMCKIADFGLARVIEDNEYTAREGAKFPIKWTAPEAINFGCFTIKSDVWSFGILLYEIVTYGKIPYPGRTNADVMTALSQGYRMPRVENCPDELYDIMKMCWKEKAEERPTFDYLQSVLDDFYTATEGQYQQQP
smiles,measurement,setting,value
"COc1cc(OC)c(Cl)c(NC(=O)c2csc3c(NC(=O)C4CC4)ncnc23)c1Cl [Example 177, 4-(cyclopropanecarbox-amido)-N-(2,6-dichloro-3,5-dimethoxyphenyl) thieno[3,2-d]pyrimidine-7-carboxamide]",IC50,PDGFRβ,> 1000 nM
same,IC50,EGFR,> 1000 nM
same,IC50,Her2,> 1000 nM
same,IC50,PDGFRα,> 1000 nM
same,IC50,Flt1,> 1000 nM
same,IC50,"FGFR3; Table 3, read-out: IC50 (nM) FGFR3",< 100 nM
same,IC50,Tie2,> 1000 nM
same,IC50,Kit,> 1000 nM
same,IC50,Fms,< 200 nM
same,IC50,Ret,> 1000 nM
same,IC50,KDR,< 200 nM
same,IC50,Src,> 1000 nM
same,IC50,"FGFR1; Table 3, read-out: IC50 (nM) FGFR1",< 100 nM
same,IC50,Met,> 1000 nM
same,IC50,Fyn,> 1000 nM
same,IC50,Flt3,> 1000 nM
same,IC50,Lyn,> 1000 nM
same,IC50,Lck,> 1000 nM
"CCOC(=O)NC(=S)Nc1ncnc2c(C(=O)Nc3c(Cl)c(OC)cc(OC)c3Cl)csc12 [Example 216, N-(2,6-dichloro-3,5-dimethoxyphenyl)-4-(3-(ethoxycarbonyl)thioureido)thieno[3,2-d]pyrimidine-7-carboxamide]",IC50,FGFR3; [1],500 to 1000 nM
same,IC50,FGFR1; [2],100 to 500 nM
"COc1cc(O)c(Cl)c(NC(=O)c2csc3c(N)ncnc23)c1Cl [Example 217, 4-Amino-N-(2,6-dichloro-3-hydroxy-5-methoxyphenyl)thieno[3,2-d]pyrimidine-7-carboxamide]",IC50,FGFR3; [1],100 to 500 nM
same,IC50,FGFR1; [2],1 to 100 nM
"COc1cc(OC)c(Cl)c(NC(=O)c2csc3c(Nc4nc5ccc(C)cc5s4)ncnc23)c1Cl [Example 225, N-(2,6-dichloro-3,5-dimethoxyphenyl)-4-(6-methylbenzo[d]thiazol-2-ylamino)thieno[3,2-d]pyrimidine-7-carboxamide]",IC50,FGFR3; [1],500 to 1000 nM
same,IC50,FGFR1; [2],500 to 1000 nM
"COc1cc(OC)c(Cl)c(NC(=O)c2csc3c(Nc4ccc5cn[nH]c5c4)ncnc23)c1Cl [Example 229, 4-(1H-indazol-6-ylamino)-N-(2,6-dichloro-3,5-dimethoxyphenyl) thieno[3,2-d]pyrimidine-7-carboxamide]",IC50,FGFR3; [1],500 to 1000 nM
same,IC50,FGFR1; [2],1 to 100 nM
"COc1cc(OC)c(Cl)c(NC(=O)c2csc3c(Nc4ccc(CN5CCOCC5)cn4)ncnc23)c1Cl [Example 247, N-(2,6-dichloro-3,5-dimethoxyphenyl)-4-(5-(morpholinomethyl)pyridin-2-ylamino)thieno[3,2-d]pyrimidine-7-carboxamide]",IC50,FGFR3; [1],1 to 100 nM
same,IC50,FGFR1; [2],1 to 100 nM
"COc1cc(OC)c(Cl)c(NC(=O)c2csc3c(Nc4ccc(NC(=O)CN(C)C)cn4)ncnc23)c1Cl [Example 299, N-(2,6-dichloro-3,5-dimethoxyphenyl)-4-(5-(2-(dimethylamino)acetamido)pyridin-2-ylamino)thieno[3,2-d]pyrimidine-7-carboxamide]",IC50,FGFR3; [1],1 to 100 nM
same,IC50,FGFR1; [2],1 to 100 nM
"CCOC(=O)CNc1ncnc2c(C(=O)Nc3c(Cl)c(OC)cc(OC)c3Cl)csc12 [Example 302, ethyl 2-(7-(2,6-dichloro-3,5-dimethoxyphenyl-carbamoyl)thieno[3,2-d]pyrimidin-4-ylamino)acetate]",IC50,FGFR3; [1],1000 to 5000 nM
same,IC50,FGFR1; [2],1000 to 5000 nM
"COc1cc(OC)c(Cl)c(NC(=O)c2csc3c(NCCNc4ccccc4)ncnc23)c1Cl [Example 304, N-(2,6-dichloro-3,5-dimethoxyphenyl)-4-(2-(phenylamino)ethyl-amino)thieno[3,2-d]pyrimidine-7-carboxamide]",IC50,FGFR3; [1],1000 to 5000 nM
same,IC50,FGFR1; [2],1000 to 5000 nM
